From patent publication US12535460B2, “Small molecule detection in normal ionic strength buffers” (ARIZONA BOARD OF REGENTS ON BEHALF OF ARIZONA STATE …, priority 2020, dated 2026)

How the values were obtained:
[1] = target: T1, GPR55 (Homo sapiens, UniProt Q9Y2T6); test: VirD oscillator method, Tocrifluor/GPR55 pair in diluted buffer; format: binding
Excerpt: To study the impact of buffer ionic strength on the binding kinetics, the binding results in 1×PBS were compared with results measured in a more diluted buffer solution (40 times diluted 1×PBS) for the same experiments performed with ADRB2-B2 antagonist pair. The solid lines in FIG. 7 show the global fitting of the data with first-order kinetic model. […] Both of the GPCR binding pairs measured involve electrostatic interactions, since the reported binding site of GPR55 is hydrophilic, and ADRB2 is partially hydrophilic. Thus, the affinity measured under normal and diluted PBS are different. […] Due at least in part to the strong ionic screening effect in normal ionic strength buffer, the signal intensity is reduced to about half of the measurement in low ionic strength buffer while the noise remains at a similar level.
Target sequence in this assay (Q9Y2T6 whole entry, species assumed): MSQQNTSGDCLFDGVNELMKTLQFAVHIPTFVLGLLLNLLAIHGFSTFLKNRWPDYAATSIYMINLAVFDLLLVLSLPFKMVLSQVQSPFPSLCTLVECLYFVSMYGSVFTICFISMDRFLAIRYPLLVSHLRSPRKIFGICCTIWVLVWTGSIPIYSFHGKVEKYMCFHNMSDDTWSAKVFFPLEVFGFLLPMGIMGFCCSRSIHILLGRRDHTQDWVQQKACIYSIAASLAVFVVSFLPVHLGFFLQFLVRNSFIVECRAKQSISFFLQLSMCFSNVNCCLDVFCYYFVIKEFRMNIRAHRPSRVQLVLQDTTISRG

[2] = tested on: empty virion K082 (no GPCR displayed); test: CSOD negative control with empty virion K082 modified fiber; format: binding, HSV-1
Excerpt: Virions are functionalized to fiber surface via epoxy coupling, and the binding of respective small molecule antagonists B2 antagonist and Tocrifluor are studied in 1×PBS. First, the virions modified fiber tip was dipped into one well filled with 1×PBS buffer to establish a baseline. Subsequently, the fiber tip was switched from the buffer well to a sample well containing ligands to measure the binding or association process. At last, the fiber tip was switched back to the buffer well for dissociation studies. […] Solid lines are global fitting of the data with a first-order kinetic model. […] For both binding pairs, when no ligand is introduced, the baseline level is within the noise level, showing that the oscillation amplitude change was caused by the specific binding between the ligands and their corresponding receptors.

[3] = target: T1, GPR55; test: CSOD binding kinetics of a small molecule ligand to virion-displayed GPR55; design: made in house; host or cells: recombinant HSV-1 virions (VirD), made by collaborators at Johns Hopkins University; conditions: 1×PBS, global fitting with first-order kinetics
Excerpt: An inverted microscope (Olympus IX-70 with 40× objective) with a CCD camera (Pike F-032, Allied Vision) was used for recording 14-bit grayscale image sequences at a frame rate of 106.5. A customized plate with 2 PDMS wells shown in FIGS. 1A and 1B was mounted on a motorized microscope stage (MAC 6000 modular automation controller, Ludl Electronic Products LTD.). Two steel electrodes (1 cm×3 cm) were placed 1 cm apart inside the well, then blocked with agarose electrophoresis gel. A green LED (505 nm, 400 mW, Thorlabs M505L3) light was coupled into the fiber via a focusing lens. Fiber is dipped into analyte solution between the electrophoresis gels. To control the fiber and move the fiber between the 2 wells, the fiber was clamped to a motorized arm (A-LSQ075B, Zaber). A sinusoidal potential was applied with a function generator (33521A, Agilent). A USB data acquisition card (USB-6229, National Instruments) was used to record voltage and current.
The tip (about 1 cm) of an optical fiber thread (about 20 cm) was first soaked in acetone for 1 minute and then rinsed with DI water and dried. The polymer coating layer on the optical fiber was then stripped off with an optical fiber stripper. The bare fiber was etched by soaking it in 47% hydrofluoric acid for 29 minutes and 15 seconds for a diameter of approximately 15 μm. The etched fiber was later rinsed with DI water to wash off the hydrofluoric acid and then blown dry with nitrogen. The tip was cut to about 9 mm long. Before functionalization, the optical fiber was cleaned with oxygen plasma for 3 minutes.
The etched fiber was soaked in (3-glycidyloxypropyl)trimethoxysilane (epoxy) solution (2.5% volume percentage of epoxy in isopropanol) for 1 hour for surface functionalization. The fiber was then rinsed with PBS buffer. […]
By fitting the kinetic curves at different concentrations globally with first-order kinetics, the association rate constant (ka), dissociation rate constant (kd) as well as equilibrium constant (KD) for both binding pairs are calculated.
Target sequence in this assay (Q9Y2T6 whole entry): as the sequence (Q9Y2T6 whole entry, species assumed) above

## Tocrifluor
[1]
  Kd: 160 ± 50 nM
[2]
  binding to empty virion K082: binds to neither
[3]
  association rate constant ka: 9200 M⁻¹ s⁻¹
  dissociation rate constant kd: 0.00081 s⁻¹
[3]; read-out: equilibrium constant KD
  Kd: 89 nM
